The source of these data is patent US7163941B2, “Pyrido[2,3-d]pyrimidin-7-carboxylic acid derivatives, their manufacture and use as pharmaceutical agents” (Hoffmann-La Roche Inc., priority 2003, dated 2007).

SMILES strings stand for the structures.

The target of one assay is T1, Lck (p56^lck, active) (Homo sapiens, UniProt P06239).
T1 construct: purchased Upstate (UBI)
The assay can be described thus: SRC-Inhibitor-Assay (time-resolved fluorescence), Lck enzyme. It counts as biochemical. The conditions noted are these: ATP 5 μM, peptide 10 μM, enzyme 2.5 U/ml, pre-incubation 15 min at 15° C. As for the experimental part:
(§1) The activity of the compounds according to this invention as inhibitors for the src-family tyrosine kinases was shown by using the following assay.
(§2) SRC-Inhibitor-Assay Parameters:
(§3) • Reaction mixture: • ATP 5 μM • Peptide (R+Ja133-Ro): 10 μM • Ja133-Ro 196 nM • Ro 9.8 μM • PT66 230 ng/ml • Assay buffer: 4 mM MgCl2 • 2 mM TCEP • 50 mM HEPES • 0,1% Tween 20 • pH 7.3 • Enzyme: 2.5 U/ml • Inhibitor: max. 25 μM • min. 0.42 nM Material: • Eu-labelled phosphotyrosine antibody: -for Lck Cisbio Mab PT66-K, • for Src EG&G Wallac PT66 Eu-W1024 (all commercially available). • Peptides: Ro: NH2-A-E-E-E-I-Y-G-E-F-E-A-K-K-K-K-CONH2 (SEQ ID NO: 1), and • Ja133-Ro: Ja133-G-Aminocaprylic acid-A-E-E-E-I-Y-G-E-F-E-A-K-K-K-K-CONH2 (SEQ ID NO: 2), wherein Ja133 is LightCycler-Red 640-N-hydroxy succinimide ester; • whereby both peptides were synthesized by an optimized solid phase peptide synthesis protocol (Merrifield, Fed. Proc. Fed. Amer. Soc. Exp. Biol. 21 (1962) 412) on a Zinsser SMP350 peptide synthesizer. Shortly, the peptide was assembled on 160 mg (22.8 μmol scale) of a Rink-Linker modified polystyrene solid phase by repeatedly conjugating an twenty fold excess of aminoacids each protected by temporary piperidine labile Fmoc- and permanent acid labile tert-Bu-, BOC- and Otert-Bu-groups depending on the side chain function. The substrate sequence AEEEIYGEFEAKKKK (SEQ ID NO: 1) was N-terminal additionally mounted with the spacer amino acids Aminocaprylic acid and Glycin. After cleavage of the N-terminal temporary protecting group the still attached and protected peptide was labeled with a 1.5 fold amount of LightCycler-Red 640-N-hydroxy succinimide ester (purchased by Roche Diagnostics GmbH) and triethylamine. After 3 hrs. the resin was washed with Dimethylformamide and Isopropanol until the eluates of the blue resin got colo-rless. […] The substrate was finally isolated by a preparative reverse phase HPLC purification. The purification yielded 12.2 mg RP-HPLC single peak pure blue material (lyophilisate). The identity was proven by MALDI mass spectroscopy [2720.0]. • Enzymes: Upstate Lck (p56^lck, active), Upstate Src (p60^c-src, partially purified) were purchased from UBI. • Time-resolved Fluorescence Assay: Reader: Perkin Elmer, Wallac Viktor 1420-040 multilabel counter; Liquid handling system: Beckman Coulter, Biomek 2000. ATP, Tween 20, HEPES were purchased from Roche Molecular Biochemicals, MgCl2 and MnCl2 were purchased from Merck Eurolab, TCEP was purchased from Pierce, 384 Well low volume fluorescence plates was purchased from Falcon. Assay Description:
(§4) At first the enzyme is pre-incubated for 15 min. at 15° C. in aqueous solution with corresponding amounts of inhibitors according to this invention. Then the phosphorylation reaction is started by adding a reaction mixture, containing ATP, Peptide and PT66, and subsequent shaking. The proceeding of this reaction is immediately monitored using time resolved fluorescence spectroscopy in a suitable well plate reader.
(§5) The IC50-values can be obtained from the reaction rates by using a non-linear curve fit (Excelfit).

Assay [1] addresses T2, Src (p60^c-src, partially purified) (Homo sapiens, UniProt P12931).
T2 construct: purchased Upstate (UBI)
The assay can be described thus: SRC-Inhibitor-Assay (time-resolved fluorescence), Src enzyme. It counts as biochemical. The conditions noted are these: ATP 5 μM, peptide 10 μM, enzyme 2.5 U/ml, pre-incubation 15 min at 15° C. On the procedure:
as §1, §2, §3, §4, §5

T1 sequence (P06239 whole entry, species assumed): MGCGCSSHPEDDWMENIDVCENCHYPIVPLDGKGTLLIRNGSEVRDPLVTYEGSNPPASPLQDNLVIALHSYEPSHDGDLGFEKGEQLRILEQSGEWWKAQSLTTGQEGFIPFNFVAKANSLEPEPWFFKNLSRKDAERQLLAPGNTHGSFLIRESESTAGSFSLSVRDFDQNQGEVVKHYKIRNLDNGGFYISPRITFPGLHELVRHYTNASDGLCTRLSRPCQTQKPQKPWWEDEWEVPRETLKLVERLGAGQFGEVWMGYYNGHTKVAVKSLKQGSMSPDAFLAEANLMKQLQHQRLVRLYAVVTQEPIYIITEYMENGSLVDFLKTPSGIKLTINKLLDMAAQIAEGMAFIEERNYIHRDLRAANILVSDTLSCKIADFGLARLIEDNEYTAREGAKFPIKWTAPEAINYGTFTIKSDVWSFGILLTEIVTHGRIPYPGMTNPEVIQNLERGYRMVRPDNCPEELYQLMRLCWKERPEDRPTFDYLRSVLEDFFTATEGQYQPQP
T2 sequence (P12931 whole entry, species assumed): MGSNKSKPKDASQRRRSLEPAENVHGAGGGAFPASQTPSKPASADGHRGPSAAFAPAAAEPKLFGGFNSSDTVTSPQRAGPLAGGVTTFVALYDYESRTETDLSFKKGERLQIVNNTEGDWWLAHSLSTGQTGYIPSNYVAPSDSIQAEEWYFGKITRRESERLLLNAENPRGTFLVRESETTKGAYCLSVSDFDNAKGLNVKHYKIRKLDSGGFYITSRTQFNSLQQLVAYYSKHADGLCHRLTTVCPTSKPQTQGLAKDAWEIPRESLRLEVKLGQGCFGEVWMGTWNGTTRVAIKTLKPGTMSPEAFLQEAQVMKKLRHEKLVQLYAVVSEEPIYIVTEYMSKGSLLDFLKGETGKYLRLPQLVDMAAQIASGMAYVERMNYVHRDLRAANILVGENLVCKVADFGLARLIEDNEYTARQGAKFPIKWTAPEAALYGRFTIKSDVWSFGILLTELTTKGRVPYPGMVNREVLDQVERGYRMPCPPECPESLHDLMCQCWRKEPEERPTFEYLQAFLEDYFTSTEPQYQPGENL

For the compound `O=C(NCCO)c1nc2nc(Nc3ccc(F)cc3)ncc2cc1-c1ccccc1Br` [Example 3-45, 6-(2-Bromo-phenyl)-2-(4-fluoro-phenylamino)-pyrido[2,3-d]pyrimidine-7-carboxylic acid (2-hydroxy-ethyl)-amide], the IC50 was 155 nM against Lck (p56^lck, active) and 21.5 nM in assay [1]. For `CN(C)C(=O)CNC(=O)c1nc2nc(Nc3ccc(F)cc3)ncc2cc1-c1ccccc1Br` [Example 3-30, 6-(2-Bromo-phenyl)-2-(4-fluoro-phenylamino)-pyrido[2,3-d]pyrimidine-7-carboxylic acid dimethylcarbamoylmethyl-amide], the IC50 at Lck (p56^lck, active) is 151 nM; in assay [1], 247 nM. On to `CNC(=O)CNC(=O)c1nc2nc(Nc3ccc(F)cc3)ncc2cc1-c1ccccc1Br` [Example 3-24, 6-(2-Bromo-phenyl)-2-(4-fluoro-phenylamino)-pyrido[2,3-d]pyrimidine-7-carboxylic acid methylcarbamoylmethyl-amide], for which the concentration for half-maximal inhibition (IC50) on Lck (p56^lck, active) worked out at 206 nM; in assay [1], 130 nM. On the same counts, the results for `CN(C)CCNC(=O)c1nc2nc(Nc3ccc(N4CCOCC4)cc3)ncc2cc1-c1ccccc1Br` [Example 3-9, 6-(2-Bromo-phenyl)-2-(4-morpholin-4-yl-phenylamino)-pyrido[2,3-d]pyrimidine-7-carboxylic acid (2-dimethylamino-ethyl)-amide] are 12.1 nM and 0.9 nM. The like results for `CS(=O)(=O)NCCNC(=O)c1nc2nc(Nc3cccc(NS(C)(=O)=O)c3)ncc2cc1-c1ccccc1Br` [Example 7-17, 6-(2-bromo-phenyl)-2-(3-methanesulfonylamino-phenylamino)-pyrido[2,3-d]pyrimidine-7-carboxylic acid (2-methanesulfonylamino-ethyl)-amide] were, in that order, 11.8 nM and 3.5 nM. On to `N#Cc1nc2nc(Nc3ccc(OCCO)cc3)ncc2cc1-c1ccccc1Br` [Example 4-3, 6-(2-Bromo-phenyl)-2-[4-(2-hydroxy-ethoxy)-phenylamino]-pyrido[2,3-d]pyrimidine-7-carbonitrile], for which the IC50 amounted to 49.9 nM on Lck (p56^lck, active) and 4.5 nM in assay [1]. The like results for `CCN(CC)CCOc1ccc(Nc2ncc3cc(-c4ccccc4Br)c(C(N)=O)nc3n2)cc1` [Example 3-2, 6-(2-Bromo-phenyl)-2-[4-(2-diethylamino-ethoxy)-phenylamino]-pyrido[2,3-d]pyrimidine-7-carboxylic acid amide] were, in that order, 12.5 nM and 4.4 nM. Consider `O=C(N[C@H]1CCNC1)c1nc2nc(Nc3ccc(F)cc3)ncc2cc1-c1ccccc1Br` [Example 3-28, (S)-6-(2-Bromo-phenyl)-2-(4-fluoro-phenylamino)-pyrido[2,3-d]pyrimidine-7-carboxylic acid pyrrolidin-3-ylamide], for which the IC50 at Lck (p56^lck, active) turned out to be 62.7 nM; in assay [1], 19.3 nM.

Regarding `NC(=O)CNC(=O)c1nc2nc(Nc3ccc(F)cc3)ncc2cc1-c1ccccc1Br` [Example 3-20, 6-(2-Bromo-phenyl)-2-(4-fluoro-phenylamino)-pyrido[2,3-d]pyrimidine-7-carboxylic acid carbamoylmethyl-amide], the concentration for half-maximal inhibition (IC50) at Lck (p56^lck, active) was determined as 289 nM; in assay [1], 62.4 nM. On the same counts, the results for `O=C(NCCCN1CCCC1=O)c1nc2nc(Nc3ccc(F)cc3)ncc2cc1-c1ccccc1Br` [Example 3-26, 6-(2-Bromo-phenyl)-2-(4-fluoro-phenylamino)-pyrido[2,3-d]pyrimidine-7-carboxylic acid [3-(2-oxo-pyrrolidin-1-yl)-propyl]-amide] are 275 nM and 197 nM.

For `CS(=O)(=O)NCCNC(=O)c1nc2nc(Nc3ccc(N4CCOCC4)cc3)ncc2cc1-c1ccccc1Br` [Example 7-15, 6-(2-bromo-phenyl)-2-(4-morpholin-4-yl-phenylamino)-pyrido[2,3-d]pyrimidine-7-carboxylic acid (2-methanesulfonylamino-ethyl)-amide], the IC50 against Lck (p56^lck, active) worked out at 11.4 nM; in assay [1] it was 0.4 nM. The like results for `NC(=O)c1nc2nc(Nc3cccc(S(=O)(=O)CCO)c3)ncc2cc1-c1ccccc1Br` [Example 3-6, 6-(2-Bromo-phenyl)-2-[3-(2-hydroxy-ethanesulfonyl)-phenylamino]-pyrido[2,3-d]pyrimidine-7-carboxylic acid amide] were, in that order, 145 nM and 22.5 nM.

For the compound `NC(=O)c1nc2nc(Nc3ccc(N4CCOCC4)cc3)ncc2cc1-c1ccccc1Br` [Example 3-1, 6-(2-Bromo-phenyl)-2-(4-morpholin-4-yl-phenylamino)-pyrido[2,3-d]pyrimidine-7-carboxylic acid amide], the IC50 was 23 nM on Lck (p56^lck, active) and 3 nM in assay [1]. For the compound `CN(C)CC(C)(C)CNC(=O)c1nc2nc(Nc3ccc(F)cc3)ncc2cc1-c1ccccc1Br` [Example 3-15, 6-(2-Bromo-phenyl)-2-(4-fluoro-phenylamino)-pyrido[2,3-d]pyrimidine-7-carboxylic acid (3-dimethylamino-2,2-dimethyl-propyl)-amide], the IC50 is 218 nM against Lck (p56^lck, active) and 41.5 nM in assay [1]. On the same counts, the results for `CS(=O)(=O)c1cccc(Nc2ncc3cc(-c4ccccc4Br)c(C(N)=O)nc3n2)c1` [Example 3-7, 6-(2-Bromo-phenyl)-2-(3-methanesulfonyl-phenylamino)-pyrido[2,3-d]pyrimidine-7-carboxylic acid amide] are 113 nM and 16.6 nM.

As to `O=C(NC1CCNCC1)c1nc2nc(Nc3ccc(N4CCOCC4)cc3)ncc2cc1-c1ccccc1Br` [Example 1, 6-(2-Bromo-phenyl)-2-(4-morpholin-4-yl-phenylamino)-pyrido[2,3-d]pyrimidine-7-carboxylic acid piperidin-4-ylamide], the IC50 against Lck (p56^lck, active) turned out to be 60.1 nM; in assay [1], 10.7 nM.

Regarding `CCN(CC)CCOc1ccc(Nc2ncc3cc(-c4ccccc4Br)c(C(=O)NCCN(C)C)nc3n2)cc1` [Example 3-10, 6-(2-Bromo-phenyl)-2-[4-(2-diethylamino-ethoxy)-phenylamino]-pyrido[2,3-d]pyrimidine-7-carboxylic acid (2-dimethylamino-ethyl)-amide], the IC50 is 3.7 nM at Lck (p56^lck, active) and 1.6 nM in assay [1]. In the case of `O=C(NCC[S+]([O-])CCO)c1nc2nc(Nc3ccc(F)cc3)ncc2cc1-c1ccccc1Br` (stereo not shown) [Example 3-43, 6-(2-Bromo-phenyl)-2-(4-fluoro-phenylamino)-pyrido[2,3-d]pyrimidine-7-carboxylic acid [2-(2-hydroxy-ethanesulfinyl)-ethyl]-amide], the IC50 turned out to be 809 nM against Lck (p56^lck, active) and 129 nM in assay [1].

In the case of `O=C(NC1CCNCC1)c1nc2nc(Nc3ccc(F)cc3)ncc2cc1-c1ccccc1Br` [Example 3-11, 6-(2-Bromo-phenyl)-2-(4-fluoro-phenylamino)-pyrido[2,3-d]pyrimidine-7-carboxylic acid piperidin-4-ylamide], the half-maximal inhibitory concentration (IC50) against Lck (p56^lck, active) amounted to 774 nM; in assay [1], 66.1 nM. On to `CSc1cccc(Nc2ncc3cc(-c4ccccc4Br)c(C(N)=O)nc3n2)c1` [Example 3-3, 6-(2-Bromo-phenyl)-2-(3-methylsulfanyl-phenylamino)-pyrido[2,3-d]pyrimidine-7-carboxylic acid amide], for which inhibition in assay [1] was half-maximal at 7.8 nM (IC50). On to `CS(=O)(=O)c1cccc(Nc2ncc3cc(-c4ccccc4Br)c(C#N)nc3n2)c1` [Example 2, 6-(2-Bromo-phenyl)-2-(3-methanesulfonyl-phenylamino)-pyrido[2,3-d]pyrimidine-7-carbonitrile], for which the IC50 against Lck (p56^lck, active) is 159 nM; in assay [1], 33 nM.

Consider `CNCCNC(=O)c1nc2nc(Nc3ccc(N4CCOCC4)cc3)ncc2cc1-c1ccccc1Br` [Example 3-44, 6-(2-Bromo-phenyl)-2-(4-morpholin-4-yl-phenylamino)-pyrido[2,3-d]pyrimidine-7-carboxylic acid (2-methylamino-ethyl)-amide], for which the IC50 against Lck (p56^lck, active) is 2.5 nM; in assay [1], 1 nM.
